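Protocol summary: plate cells (96-well), add compound at 5 concentrations, incubate 48 h, interpolate endpoints linearly. At the GI50, growth is halved. TGI marks complete inhibition of growth.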

Our source for the TGI and GI50 values is PubChem BioAssay (NCI).

Among the test systems are HCT-116 colon; OVCAR-5 ovarian; SN12C renal; TK-10 renal; HCC-2998 colon; MDA-MB-435; ACHN renal; OVCAR-8 ovarian; PC-3 prostate; RXF 393 renal; A498 renal.
Experiment in all cases: growth of human tumour cells (NCI), 48 h

As for `COC(=O)C(=O)C(C(=O)C(=O)Nc1cccc([N+](=O)[O-])c1)c1nc2ccc(Cl)cc2[nH]c1=O` (configuration not stated), the TGI in the assay on HCT-116 colon, in the assay with OVCAR-5 ovarian, in the assay on SN12C renal, in the assay on TK-10 renal, in the assay with HCC-2998 colon and in the assay on MDA-MB-435 was above 100 µM throughout. The TGI in the assay with ACHN renal, in the assay on OVCAR-8 ovarian, in the assay with PC-3 prostate and in the assay with RXF 393 renal was above 100 µM in each case.

On to `N=C(N)SCCC(=O)CCSC(=N)N`, for which the TGI in the assay on HCT-116 colon, in the assay with A498 renal, in the assay with SN12C renal, in the assay on TK-10 renal, in the assay with HCC-2998 colon and in the assay with MDA-MB-435 was above 100 µM each time. For the same compound, the TGI in the assay on ACHN renal, with OVCAR-8 ovarian, in the assay on PC-3 prostate and in the assay on RXF 393 renal was above 100 µM each time.

Consider `CCOC(=O)NNC(=O)NCc1ccccc1CNC(=O)NNC(=O)OCC`, for which the TGI in the assay on HCT-116 colon, with OVCAR-5 ovarian, in the assay on A498 renal, in the assay with SN12C renal, with TK-10 renal and with HCC-2998 colon was above 100 µM throughout. The TGI in the assay on MDA-MB-435, in the assay on OVCAR-8 ovarian, in the assay with PC-3 prostate and with RXF 393 renal was above 100 µM throughout.

Take `O=C1C=C2CCC[C@H]3OC(=O)C[C@@]23CC1`: the TGI with HCT-116 colon, with OVCAR-5 ovarian, with A498 renal, in the assay with SN12C renal, in the assay with TK-10 renal and with HCC-2998 colon was above 100 µM in each case. In addition, the TGI with MDA-MB-435, with ACHN renal, in the assay on PC-3 prostate and in the assay with RXF 393 renal was above 100 µM throughout.

On to `Cn1c([C@H](C#N)C(=O)c2cc(O)ccc2[N+](=O)[O-])nc2ccccc21`, for which the TGI in the assay with HCT-116 colon, in the assay on OVCAR-5 ovarian, in the assay on A498 renal, in the assay on SN12C renal, in the assay on TK-10 renal and in the assay with HCC-2998 colon was above 100 µM each time. The TGI in the assay on MDA-MB-435, in the assay with ACHN renal, in the assay with OVCAR-8 ovarian and in the assay on PC-3 prostate was above 100 µM each time.

On to `Nc1ccc(Nc2cc(=O)[nH]c(=O)[nH]2)cc1`, for which the TGI in the assay on HCT-116 colon, in the assay on A498 renal, in the assay on SN12C renal, with TK-10 renal, in the assay on HCC-2998 colon and with MDA-MB-435 was above 100 µM throughout. Also, the TGI in the assay with ACHN renal, with OVCAR-8 ovarian and in the assay with PC-3 prostate was above 100 µM throughout.

As for `COc1ccc(C2OCCN2C)cc1` (configuration not stated), the TGI in the assay on HCT-116 colon, in the assay with OVCAR-5 ovarian, in the assay with A498 renal, in the assay on TK-10 renal, with MDA-MB-435 and in the assay with ACHN renal was above 100 µM each time. Further, the TGI with OVCAR-8 ovarian, in the assay on PC-3 prostate and in the assay on RXF 393 renal was above 100 µM each time.

For the compound `N#C/C(=C\c1ccc([N+](=O)[O-])s1)c1nc2cc(Cl)ccc2s1`, the GI50 was 0.329 µM in the assay on HCT-116 colon; 3.56 µM in the assay with A498 renal; 0.296 µM in the assay on SN12C renal; 2.31 µM in the assay with HCC-2998 colon; 1.65 µM in the assay with MDA-MB-435; 0.555 µM in the assay with OVCAR-8 ovarian. Besides, in the assay on PC-3 prostate, the GI50 was 1.31 µM. The TGI in the assay on HCT-116 colon was 1.27 µM; with A498 renal it was above 100 µM; in the assay with SN12C renal, 1.43 µM; in the assay on HCC-2998 colon it was 6.8 µM; in the assay on MDA-MB-435 it was 3.19 µM; in the assay with OVCAR-8 ovarian, 69.2 µM. Besides, the TGI in the assay on PC-3 prostate came out at 3.42 µM.

Consider `Cc1cccc2nc3c(=O)[nH]c(=O)nc-3n(C)c12`, for which the TGI with HCT-116 colon was above 100 µM; in the assay on OVCAR-5 ovarian, above 100 µM; in the assay on SN12C renal it was above 100 µM; in the assay on TK-10 renal, above 100 µM; in the assay with HCC-2998 colon it was above 100 µM; in the assay on MDA-MB-435, 34.1 µM. Also, the TGI in the assay with ACHN renal, in the assay on OVCAR-8 ovarian, in the assay with PC-3 prostate and in the assay with RXF 393 renal was above 100 µM in each case.

Regarding `Oc1ccccc1C1C=C(c2ccccc2)NC(N2CCCCC2)=C1c1nc2ccccc2[nH]1` (configuration not stated), the TGI with HCT-116 colon is 24.6 µM; in the assay with OVCAR-5 ovarian, 32 µM; with SN12C renal, 29.7 µM; with TK-10 renal it was 34.3 µM; in the assay with HCC-2998 colon, 10.8 µM; in the assay with MDA-MB-435, 29.6 µM. The TGI with ACHN renal came to 47.7 µM; in the assay with OVCAR-8 ovarian, 30.9 µM; with PC-3 prostate it was 24.5 µM; in the assay with RXF 393 renal, 24.7 µM.

For the compound `Cc1ccc(-n2cc(-c3ccc(Cl)cc3)c3c(NN)ncnc32)cc1`, the TGI in the assay on HCT-116 colon was 9.1 µM; in the assay on OVCAR-5 ovarian, 43.2 µM; in the assay with SN12C renal it was 13.9 µM; in the assay with TK-10 renal it was above 100 µM; in the assay on HCC-2998 colon, 22.2 µM; in the assay with MDA-MB-435 it was 29.4 µM. Also, the TGI in the assay on ACHN renal came to 14.3 µM; in the assay on OVCAR-8 ovarian it was 7.02 µM; with PC-3 prostate it was 56.1 µM; in the assay with RXF 393 renal it was 7.31 µM.

For the compound `C[N+](C)(C)C=Nc1cccc2c1CCCC2`, the TGI with HCT-116 colon, in the assay on OVCAR-5 ovarian, in the assay with A498 renal, in the assay on SN12C renal, in the assay with TK-10 renal and in the assay with MDA-MB-435 was above 100 µM throughout. The TGI with ACHN renal, in the assay on OVCAR-8 ovarian, in the assay on PC-3 prostate and in the assay on RXF 393 renal was above 100 µM throughout.

For the compound `COCC1OC(S(=O)(=O)c2ccccc2)C(O)C(OC)C1OC` (configuration not stated), the TGI in the assay with HCT-116 colon, in the assay on OVCAR-5 ovarian, with SN12C renal, with TK-10 renal, with HCC-2998 colon and in the assay on MDA-MB-435 was above 100 µM in each case. The TGI in the assay on ACHN renal, in the assay on OVCAR-8 ovarian, in the assay with PC-3 prostate and in the assay with RXF 393 renal was above 100 µM throughout.
